The assay has as its system cGMP-PDE V. As to the kind of experiment: c-GMP-PDE V inhibitory activity. The class given is biochemical, various animal species and man. The method, then: The cGMP-PDE and other PDE isozymes were isolated from cardiovascular tissues (heart and aorta) of various animal species and man by anion-exchange and affinity chromatography as described by Silver et al., Sec. Messeng. Phos. 13:13-25, 1991; PDE activity, in the presence and absence of test compounds was determined essentially as described by Thompson et al., Adv. Cyclic Nucleotide Res. 10:69-92. To determine the potency and selectivity of compounds as PDE inhibitors, compounds are screened for their effect on cyclic nucleotide hydrolysis at 10 μM. […] The IC50 values are calculated from concentration-response curves as described by Tallarida and Murray, Manual of Pharmacologic Calculations with Computer Programs, Procedure 8, Graded Dose-response, pp. 14-19, Springer-Verlag, New York, 1981.

Setting [1] is: separate experimental runs, first value.
The mark [2] stands for this setting: separate experimental runs, second value.

pIC50: −log10 of the molar value. Where two headings read alike, the source gives them in different places.

On to `CCn1ncc2c(NCC3CCC(C(=O)OCSC)CC3)c3ccccc3nc21` (centres unmarked) [Example 5, 1-ethyl-N-[[4-(methylthiomethoxycarbonyl)cyclohexyl]methyl]-1H-pyrazolo[3,4-b]quinolin-4-amine], for which the “Percent Inhibition cGMP-PDE V” value (0.1 μM) was found to be 4%, the “Percent Inhibition cGMP-PDE V” value (1 μM) came out at 34% and the “Percent Inhibition cGMP-PDE V” value (10 μM) was 81%. In the case of `CCn1ncc2c(NCC3CCCCC3)c3cc(C(=O)OC)ccc3nc21` [29(d), 1-ethyl-6-methoxycarbonyl-N-(cyclohexylmethyl)-1H-pyrazolo[3,4-b]quinolin-4-amine], the pIC50 was 7.82. Turning to `CCn1ncc2c(NCC3CCCCC3)c3ccc(N)cc3nc21` [Example 25, 1-ethyl-7-amino-N-(cyclohexylmethyl)-1H-pyrazolo[3,4-b]quinolin-4-amine], the “Percent Inhibition cGMP-PDE V” value by setting is: (0.1 μM) 7%; (1 μM) 68%; (10 μM) 95%. With `CCn1ncc2c(N[C@H](C)C3CCCCC3)c3cc(OC)ccc3nc21` [Example 27, 1-ethyl-6-methoxy-N-[R(-)-1-(cyclohexyl)ethyl]-1H-pyrazolo[3,4-b]quinolin-4-amine], the pIC50 is 6.47 under setting [1]; 6.68 under setting [2]; 6.58 (separate experimental runs, third value). The molecule `CCn1ncc2c(NC[C@@H]3CCC[C@@H](O)C3)c3cc([N+](=O)[O-])ccc3nc21` (relative stereo) [Example 36(b), 1-ethyl-6-nitro-N-(3-hydroxycyclohexylmethyl)-1H-pyrazolo[3,4-b]quinolin-4-amine] showed a pIC50 of 7.71. The molecule `c1ccc2c(NCC3CCCCC3)c3cnn(C4CCCC4)c3nc2c1` [11(e), 1-cyclopentyl-N-(cyclohexylmethyl)-1H-pyrazolo[3,4-b]quinolin-4-amine] showed a pIC50 of 6.82. Still for that read-out and setting: under `CCN(CC)S(=O)(=O)c1ccc2nc3c(cnn3C(C)C)c(NCC3CCCCC3)c2c1` [45(d), 1-isopropyl-6-(diethylaminosulfonyl)-N-(cyclohexylmethyl)-1H-pyrazolo[3,4-b]quinolin-4-amine] stands 7.36; under `CCn1ncc2c(NCC3CCCCC3)c3cc(OCCN4CCOCC4)ccc3nc21` [Example 33, 1-ethyl-6-[2-(4-morpholinyl)ethoxy]-N-(cyclohexylmethyl)-1H-pyrazolo[3,4-b]quinolin-4-amine], 7.04. For the molecule `CCn1ncc2c(N[C@@H](C)C3CCCCC3)c3ccccc3nc21` [Example 39, 1-ethyl-N-[S(+)-1-(cyclohexyl)ethyl]-1H-pyrazolo[3,4-b]quinolin-4-amine], the pIC50 was 7.82. On the same count and under the same terms, under `CCn1ncc2c(NCC3CCCCC3)c3cc([S+](C)[O-])ccc3nc21` (centres unmarked) [Example 49, 1-ethyl-6-(methylsulfinyl)-N-(cyclohexylmethyl)-1H-pyrazolo[3,4-b]quinolin-4-amine] stands 7.74; under `CCn1ncc2c(NCC3CCCCC3)c3cc(OCCN(C)C)ccc3nc21` [Example 12], 6.62; under `CCn1ncc2c(N[C@@H](C)C3CCCCC3)c3cc(OC)c(OC)cc3nc21` [42(c)], 6.95. Same read-out and setting: under `CCn1ncc2c(N[C@@H](C)C3CCCCC3)c3cc(-c4noc(C)n4)ccc3nc21` [47(c)] stands 7.64; under `CCn1ncc2c(NCC3CC3)c3ccccc3nc21` [Example 4, 1-ethyl-N-(cyclopropylmethyl)-1H-pyrazolo[3,4-b]quinolin-4-amine], 5.52; under `CCn1ncc2c(NCC3CCCCC3)c3cc(-c4ccncc4)ccc3nc21` [Example 31], 7.49.

The molecule `CCn1ncc2c(N[C@@H](CO)C3CCCCC3)c3cc([N+](=O)[O-])ccc3nc21` [40(c), 1-ethyl-6-nitro-N-[R-(-)-1-(cyclohexyl)ethanol]-1H-pyrazolo[3,4-b]quinolin-4-amine] had a pIC50 of 8.62. `CCn1ncc2c(NCC3CCC(C(=O)OC)CC3)c3ccccc3nc21` (centres unmarked) [Example 3, 1-ethyl-N-[(4-methoxycarbonylcyclohexyl)methyl]-1H-pyrazolo[3,4-b]quinolin-4-amine]: the pIC50 was 6.52.

Turning to `CCn1ncc2c(N[C@@H](C)C3CCCCC3)c3cc(-n4cccn4)ccc3nc21` [Example 52, 1-ethyl-6-(1-pyrazolyl)-N-[S(+)-1-(cyclohexyl)ethyl]-1H-pyrazolo[3,4-b]quinolin-4-amine], the pIC50 is, setting by setting: under setting [1], 9.70; under setting [2], 9.57. `CCn1ncc2c(NC[C@@H]3CCC[C@H](O)C3)c3cc([N+](=O)[O-])ccc3nc21` (relative stereo) [Example 36(a), 1-ethyl-6-nitro-N-(3-hydroxycyclohexylmethyl)-1 H-pyrazolo[3,4-b]quinolin-4-amine]: the pIC50 is 8.00. For the molecule `CCn1ncc2c(N[C@@H](C)C3CCCCC3)c3cc(-n4cc(C)cn4)ccc3nc21` [Example 50, 1-ethyl-6-(4-methyl-1-pyrazolyl)-N-[S(+)-1-(cyclohexyl)ethyl]-1H-pyrazolo[3,4-b]quinolin-4-amine], the pIC50 was 8.04. `CCn1ncc2c(NCC3CCC(=O)CC3)c3cc(OC)ccc3nc21` [28(b), 1-ethyl-6-methoxy-N-[4-oxocyclohexylmethyl]-1H-pyrazolo[3,4-b]quinolin-4-amine]: the “Percent Inhibition cGMP-PDE V” value (0.1 μM) was 0%, the “Percent Inhibition cGMP-PDE V” value (1 μM) worked out at 25% and the “Percent Inhibition cGMP-PDE V” value (10 μM) came to 79%. With `CCn1ncc2c(NCC3CCCCC3)c3ccc([N+](=O)[O-])cc3nc21` [16(c), 1-ethyl-7-nitro-N-(cyclohexylmethyl)-1H-pyrazolo[3,4-b]quinolin-4-amine], the pIC50 was 6.82. `CCn1ncc2c(NCC3CCCCC3)c3cccc(OC)c3nc21` [9(f), 1-ethyl-8-methoxy-N-(cyclohexylmethyl)-1H-pyrazolo[3,4-b]quinolin-4-amine] showed a pIC50 of 6.21. Molecule `CCn1ncc2c(N[C@@H](C)C3CCCCC3)c3cc([S+](C)[O-])ccc3nc21` (single isomer, unassigned) [48(e), 1-ethyl-6-(methylsulfinyl)-N-[S(+)-1-(cyclohexyl)ethyl]-1H-pyrazolo[3,4-b]quinolin-4-amine] had a pIC50 of 8.12. In turn, `CCn1ncc2c(NCC3CCCCC3)c3cc(NC(C)=O)ccc3nc21` [24(c), 1-ethyl-6-acetamido-N-(cyclohexylmethyl)-1H-pyrazolo[3,4-b]quinolin-4-amine] had a pIC50 of 7.29. Regarding `C=Cc1ccc2nc3c(cnn3CC)c(N[C@@H](C)C3CCCCC3)c2c1` [Example 55, 1-ethyl-6-(ethenyl)-N-[S(+)-1(cyclohexyl)ethyl]-1H-pyrazolo[3,4-b]quinolin-4-amine], the “Percent Inhibition cGMP-PDE V” value runs as follows: (0.001 μM) 58%; (0.01 μM) 91%; (0.1 μM) 96%.

As for `CCn1ncc2c(NCC3CCCCC3)c3cccc(Br)c3nc21` [44(d), 1-ethyl-8-bromo-N-(cyclohexylmethyl)-1H-pyrazolo[3,4-b]quinolin-4-amine], the “Percent Inhibition cGMP-PDE V” value runs as follows: (0.01 μM) 17%; (0.1 μM) 20%; (1 μM) 70%. Take `CCn1ncc2c(N[C@@H](C)C3CCCCC3)c3cc(S(=O)(=O)C(F)(F)F)ccc3nc21` [53(c), 1-ethyl-6-(trifluoromethylsulfonyl)-N-[S (+)-1-(cyclohexyl)ethyl]-1H-pyrazolo[3,4-b]quinolin-4-amine]: the negative-log IC50 (pIC50) is 8.27.

Usually pIC50 stands for the IC50 on a negative log10 scale, so that one unit is a factor of ten. Lower therefore signals a large IC50.

(Values after patent publication US5488055A, “Substituted N-cycloalkylmethyl-1H-pyrazolo(3,4-b)quinolin-4 amines and compositions and methods of use thereof” (Sanofi Winthrop Inc., priority 1995, dated 1996).)
